Measurements from PubChem BioAssay AID248 (DTP/NCI, 2004).
“And” between values parts separate entries of the source, which are not always exact repeats. Equal entries are not always repeated. Toxic doses and inconclusive results are not listed. Cut-off read from the data, not from the text of the source: active = T/C of 150% or more; inactive = T/C below 125%.

Tested on: L1210 leukemia ip in BDF1 mice, survival T/C
Experiment: NCI In Vivo Anticancer Drug Screen. Data for tumor model L1210 Leukemia (intraperitoneal) in B6D2F1 (BDF1) mice
Conditions: endpoint: mean survival time, higher = longer survival
Outline: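 Each compound was tested against a transplantable tumor grown in mice. The endpoint was survival, with treated animals benchmarked against vehicle controls as a simple ratio.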

[1] = dose: 50.0 mg/kg/injection, schedule: Q01DX009 (ip), vehicle: Klucel (hydroxypropylcellulose) (HPC)
[2] = dose: 100.0 mg/kg/injection, schedule: Q04DX003 (ip), vehicle: Klucel (hydroxypropylcellulose) (HPC)
[3] = dose: 100.0 mg/kg/injection, schedule: Q04DX003 (ip), vehicle: saline
[4] = dose: 100.0 mg/kg/injection, schedule: Q01DX009 (ip), vehicle: saline with Tween-80
[5] = dose: 200.0 mg/kg/injection, schedule: Q01DX009 (ip), vehicle: saline with Tween-80
[6] = dose: 400.0 mg/kg/injection, schedule: Q01DX009 (ip), vehicle: saline with Tween-80
[7] = dose: 50.0 mg/kg/injection, schedule: Q01DX009 (ip), vehicle: saline with Tween-80
[8] = dose: 100.0 mg/kg/injection, schedule: Q01DX001 (ip), vehicle: saline
[9] = dose: 200.0 mg/kg/injection, schedule: Q01DX001 (ip), vehicle: saline
[10] = dose: 400.0 mg/kg/injection, schedule: Q01DX001 (ip), vehicle: saline
[11] = dose: 100.0 mg/kg/injection, schedule: Q01DX009 (ip), vehicle: Klucel (hydroxypropylcellulose) (HPC)
[12] = dose: 200.0 mg/kg/injection, schedule: Q04DX003 (ip), vehicle: Klucel (hydroxypropylcellulose) (HPC)
[13] = dose: 100.0 mg/kg/injection, schedule: Q04DX003 (ip), vehicle: saline with Tween-80
[14] = dose: 200.0 mg/kg/injection, schedule: Q04DX003 (ip), vehicle: saline with Tween-80
[15] = dose: 100.0 mg/kg/injection, schedule: Q01DX001 (ip), vehicle: carboxymethylcellulose (CMC)
[16] = dose: 200.0 mg/kg/injection, schedule: Q01DX001 (ip), vehicle: carboxymethylcellulose (CMC)
[17] = dose: 400.0 mg/kg/injection, schedule: Q01DX001 (ip), vehicle: carboxymethylcellulose (CMC)
[18] = dose: 400.0 mg/kg/injection, schedule: Q04DX003 (ip), vehicle: Klucel (hydroxypropylcellulose) (HPC)

Measured: T/C

CCOC(=O)/C=C(\CBr)OC
inactive: dose: 12.5 mg/kg/injection, schedule: Q01DX009 (ip), vehicle: Klucel (hydroxypropylcellulose) (HPC) 105 % of control | dose: 25.0 mg/kg/injection, schedule: Q01DX009 (ip), vehicle: Klucel (hydroxypropylcellulose) (HPC) 98 % of control | dose: 25.0 mg/kg/injection, schedule: Q04DX003 (ip), vehicle: Klucel (hydroxypropylcellulose) (HPC) 90 % of control | [1] 94 % of control and 103 % of control | dose: 50.0 mg/kg/injection, schedule: Q04DX003 (ip), vehicle: Klucel (hydroxypropylcellulose) (HPC) 96 % of control | [2] 96 % of control

CCOC1(OCC)CC2C(=O)CCCC21OC(C)=O (centres undefined)
inactive: dose: 75.0 mg/kg/injection, schedule: Q04DX002 (ip), vehicle: saline 111 % of control | dose: 150.0 mg/kg/injection, schedule: Q04DX002 (ip), vehicle: saline 105 % of control | dose: 300.0 mg/kg/injection, schedule: Q04DX002 (ip), vehicle: saline 101 % of control

O=C(O)C(Cc1ccc(O)cc1)c1ccccc1 (centres undefined)
inactive: [3] 98 % of control | dose: 200.0 mg/kg/injection, schedule: Q04DX003 (ip), vehicle: saline 94 % of control | dose: 400.0 mg/kg/injection, schedule: Q04DX003 (ip), vehicle: saline 96 % of control

CC1C[N+](C)=C(c2ccc(O)cc2)S1 (centres undefined)
inactive: dose: 50.0 mg/kg/injection, schedule: Q01DX001 (ip), vehicle: saline with Tween-80 103 % of control | dose: 100.0 mg/kg/injection, schedule: Q01DX001 (ip), vehicle: saline with Tween-80 107 % of control

O=C(Nc1ccc(Cl)cc1)Oc1ccccn1
inactive: [4] 93 % of control | [5] 91 % of control | [6] 91 % of control

CCCCCCCC(O)CCC(=O)NN (centres undefined)
inactive: dose: 25.0 mg/kg/injection, schedule: Q01DX009 (ip), vehicle: saline with Tween-80 98 % of control | [7] 102 % of control | [4] 106 % of control

C=C(C(=O)OC)C(C(=O)OC)=C(N1CCCCC1)N1CCCCC1
inactive: dose: 100.0 mg/kg/injection, schedule: Q04DX002 (ip), vehicle: saline with Tween-80 95 % of control | dose: 200.0 mg/kg/injection, schedule: Q04DX002 (ip), vehicle: saline with Tween-80 95 % of control

Nc1cccc(C(=O)NO)c1
inactive: [8] 98 % of control | [9] 103 % of control | [10] 97 % of control

NCC(=O)c1cccc2ccc[n+]([O-])c12
inactive: [1] 97 % of control | [11] 97 % of control | [2] 95 % of control | [12] 98 % of control

O=S(=O)([O-])Sn1c(-c2ccccc2)c[n+]2ccccc12
inactive: dose: 5.0 mg/kg/injection, schedule: Q01DX009 (ip), vehicle: saline 96 % of control | dose: 10.0 mg/kg/injection, schedule: Q01DX001 (ip), vehicle: saline 102 % of control | dose: 10.0 mg/kg/injection, schedule: Q01DX009 (ip), vehicle: saline 101 % of control | dose: 10.0 mg/kg/injection, schedule: Q04DX003 (ip), vehicle: saline 100 % of control | dose: 20.0 mg/kg/injection, schedule: Q01DX001 (ip), vehicle: saline 100 % of control | dose: 20.0 mg/kg/injection, schedule: Q01DX009 (ip), vehicle: saline 120 % of control | dose: 20.0 mg/kg/injection, schedule: Q04DX003 (ip), vehicle: saline 97 % of control | dose: 40.0 mg/kg/injection, schedule: Q01DX001 (ip), vehicle: saline 96 % of control | dose: 40.0 mg/kg/injection, schedule: Q04DX003 (ip), vehicle: saline 106 % of control

CCc1nc2ccccc2c(=O)n1-c1ccc(Cl)cc1
inactive: [7] 92 % of control | [4] 95 % of control

CS(=O)(=O)OCCC(=O)NCCCCNC(=O)CCOS(C)(=O)=O
inactive: [8] 104 % of control | [3] 115 % of control | [9] 117 % of control | dose: 264.0 mg/kg/injection, schedule: Q01DX001 (ip), vehicle: saline 103 % of control and 121 % of control | dose: 264.0 mg/kg/injection, schedule: Q01DX009 (ip), vehicle: saline 113 % of control | [10] 97 % of control | [6] 122 % of control | dose: 400.0 mg/kg/injection, schedule: Q01DX009 (ip), vehicle: saline 112 % of control

C=CC(C)(C)c1ccccc1O
inactive: [13] 95 % of control | [14] 104 % of control

CS(=O)(=O)OCC(O)C(O)C(O)C(O)COS(C)(=O)=O (centres undefined)
inactive: [15] 98 % of control | [16] 92 % of control | [17] 103 % of control

O=C1C=CC[C@H](/C=C/c2ccccc2)O1
inactive: dose: 50.0 mg/kg/injection, schedule: Q01DX001 (ip), vehicle: alcohol 101 % of control | dose: 100.0 mg/kg/injection, schedule: Q01DX001 (ip), vehicle: alcohol 103 % of control | dose: 200.0 mg/kg/injection, schedule: Q01DX001 (ip), vehicle: alcohol 101 % of control | dose: 400.0 mg/kg/injection, schedule: Q01DX001 (ip), vehicle: alcohol 107 % of control

CC1(c2cccs2)NC(=O)NC1=O (centres undefined)
inactive: [15] 95 % of control | [4] 102 % of control | [13] 105 % of control and 96 % of control | [16] 101 % of control | [5] 110 % of control | [14] 109 % of control and 96 % of control | [17] 97 % of control | [6] 109 % of control | dose: 400.0 mg/kg/injection, schedule: Q04DX003 (ip), vehicle: saline with Tween-80 107 % of control and 105 % of control

CCCCC(CCCCCC(CCCC)C1NC(C)Cc2cc(OC)c(OC)cc21)C1NC(C)Cc2cc(OC)c(OC)cc21 (centres undefined)
inactive: dose: 25.0 mg/kg/injection, schedule: Q01DX001 (ip), vehicle: Klucel (hydroxypropylcellulose) (HPC) 98 % of control | dose: 50.0 mg/kg/injection, schedule: Q01DX001 (ip), vehicle: Klucel (hydroxypropylcellulose) (HPC) 105 % of control | dose: 100.0 mg/kg/injection, schedule: Q01DX001 (ip), vehicle: Klucel (hydroxypropylcellulose) (HPC) 90 % of control and 91 % of control

COC(=O)c1ccc(C(=O)O)[n+]([O-])c1
inactive: [11] 93 % of control | [2] 97 % of control | dose: 200.0 mg/kg/injection, schedule: Q01DX009 (ip), vehicle: Klucel (hydroxypropylcellulose) (HPC) 88 % of control | [12] 103 % of control | [18] 97 % of control

COC(=O)CC(=O)C(C)(C)C
inactive: [7] 101 % of control | [4] 101 % of control | [5] 101 % of control

CCOC(=O)/C=C/c1cccc([N+](=O)[O-])c1
inactive: [2] 98 % of control | [12] 91 % of control | [18] 101 % of control

CC(O)C(O)C(O)CO (centres undefined)
inactive: [8] 96 % of control | [9] 111 % of control | [10] 94 % of control

O=[N+]([O-])c1cccc(/C=C/C=C/c2c(Cl)cccc2Cl)c1
inactive: [8] 91 % of control | [9] 94 % of control | [10] 100 % of control

CN1CCC(C[CH2][Sn]([c]2ccccc2)([c]2ccccc2)[c]2ccccc2)CC1
inactive: dose: 25.0 mg/kg/injection, schedule: Q04DX002 (ip), vehicle: saline with Tween-80 100 % of control

CCOc1ccc(CCC(=O)O)cc1
inactive: [2] 100 % of control | [12] 105 % of control | [18] 94 % of control

OCC1C2CCC(O2)C1CO (centres undefined)
inactive: dose: 0.75 mg/kg/injection, schedule: Q04DX002 (ip), vehicle: saline 96 % of control | dose: 1.5 mg/kg/injection, schedule: Q04DX002 (ip), vehicle: saline 93 % of control and 110 % of control | dose: 3.0 mg/kg/injection, schedule: Q04DX002 (ip), vehicle: saline 96 % of control | dose: 6.0 mg/kg/injection, schedule: Q04DX002 (ip), vehicle: saline 101 % of control and 115 % of control | dose: 12.5 mg/kg/injection, schedule: Q04DX002 (ip), vehicle: saline 101 % of control | dose: 25.0 mg/kg/injection, schedule: Q04DX002 (ip), vehicle: saline 108 % of control | dose: 50.0 mg/kg/injection, schedule: Q04DX002 (ip), vehicle: saline 111 % of control | dose: 100.0 mg/kg/injection, schedule: Q04DX002 (ip), vehicle: saline 105 % of control

CCOC(=O)Cc1cc(=O)c2cc(C)ccc2[nH]1
inactive: [8] 90 % of control | [9] 89 % of control | [10] 90 % of control

O=C(N=P(c1ccccc1)(c1ccccc1)c1ccccc1)c1ccccc1
inactive: [8] 94 % of control | [9] 100 % of control | [10] 96 % of control
